The values below come from patent US20230125249A1 (FIRMENICH SA, priority 2017, published 2023).

One may read the EC50 as the concentration at which the effect is half-maximal.

The target of assay [1] is T1, OR5AN1 olfactory receptor (Homo sapiens, UniProt Q8NGI8).
T1 construct: expressed in transfected cells
T1 sequence (Q8NGI8 1-311): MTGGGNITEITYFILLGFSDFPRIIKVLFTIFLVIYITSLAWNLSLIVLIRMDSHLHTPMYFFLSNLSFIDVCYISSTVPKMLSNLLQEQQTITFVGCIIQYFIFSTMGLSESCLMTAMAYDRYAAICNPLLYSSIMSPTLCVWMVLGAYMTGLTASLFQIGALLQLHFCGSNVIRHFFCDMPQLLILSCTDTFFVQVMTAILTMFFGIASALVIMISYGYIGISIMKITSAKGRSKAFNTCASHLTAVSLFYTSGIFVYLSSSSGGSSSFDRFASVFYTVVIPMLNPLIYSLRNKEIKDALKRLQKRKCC
The assay is described as follows: MUSCENONE®/musk dose-response on OR5AN1 in presence and absence of putative modulator (EC50 shift, span). In kind it is cell-based. The note with it: FIG. 6; MUSCENONE® dose response in the presence of 250 μM compound.

The target of assay [2] is T1, OR5AN1 olfactory receptor. The assay is described as follows: Single point binary mixture screen (MUSCENONE® + test compound) on a cell line expressing OR5AN1. Format: cell-based. Particulars: MUSCENONE® 10 μM + test compound 500 μM, compared to MUSCENONE® alone. As to the method: 481 binary mixtures were created by mixing a MUSCENONE® stock solution with a stock solution of each test compound to a final concentration 10 and 500 μM, respectively. Stock solutions were made of compounds dissolved in pure DMSO. Each mixture was presented to a cell line expressing the OR5AN1 olfactory receptor. The final concentration of DMSO in each binary mixture was 0.17%, and had no visible effect on the cells
The resulting activation was then measured and compared to MUSCENONE® alone (defining the baseline of the enhancement assay). The quality of the HTS process was determined and the window variability and signal reliability were assessed by calculating the Z′ value of each plate. Twenty hits were obtained, five of which were macrocyclic ketone and nitromusk OR5AN1 olfactory receptor agonists (hit n° 1, 2, 3, 5 and 9). These OR5AN1 olfactory receptor agonists further confirmed that the dynamic range of the assay window was sufficient (as the responses recorded were well above baseline) and thus likely sensitive enough to detect even low levels of putative enhancement.

Assay [3] addresses T1, OR5AN1 olfactory receptor. The assay is described as follows: Allosteric EC50 shift analysis: MUSCENONE® dose response with serial concentrations of enhancer. In kind it is cell-based. Particulars: same method as for TDA. The procedure: The level of enhancement of the OR5AN1 olfactory receptor activation was evaluated at distinct concentrations of the enhancer. […] The curves were obtained by applying the simplified Allosteric EC50 shift effect equation (available in Prism5, v. 5.02) derived from the ternary complex interaction model.

The next assay deals with OR5AN1 allele 3. The assay is described as follows: Cell based assay of hypofunctional OR5AN1 allele 3 with and without enhancer. The arrangement: species or system human.
Assay [4] concerns the target T1, OR5AN1 olfactory receptor. The assay is described as follows: Response of the OR5AN1 olfactory receptor to musk compounds (HTRF). In kind it is cell-based. In general terms: TR-FRET usually uses a lanthanide donor and a delayed reading to cut background.
For a further assay, the system named is OR5AN1 allele 4. The assay is described as follows: Cell based assay of hypofunctional OR5AN1 allele 4 with and without enhancer. Details: species or system human.
A short description of assay [5]: Odor detection threshold (ODT) forced-choice triangle test with background odor. Format: in vivo, human. The procedure: Sensitivity of human individuals to MUSCENONE® was evaluated by performing an odor detection threshold (ODT) test. The ODT test consisted of identifying the concentration for which 50% of the panelists are able to determine which of three containers contains the target compound Muscenone® in a forced-choice triangle tests. Two tests were performed to calculate the ODT in mixtures containing Muscenone® plus a perceivable background odor of chemically similar molecules a) the enhancer tridecylenic aldehyde and b) the non-enhancing volatile compound, nonanal.
27 panelists were given a series of triangle tests with increasing concentration of MUSCENONE® in the presence of nonanal at a concentration of 0.1%. Within each triangle test, the three samples contained nonanal at 0.1% and one sample also contained MUSCENONE®. In each triangle test, the panelists were asked to identify the one sample that was different from the other two samples. The ODT was calculated by fitting a non-linear regression model onto the data and calculating the MUSCENONE® concentration at which the proportion of correct responses was equal to ⅔ (the midpoint between chance rate ⅓ and all correct answers 1). […]

Assay [6] deals with T1, OR5AN1 olfactory receptor. The assay is described as follows: MUSCENONE®/musk dose-response on OR5AN1 in presence and absence of putative modulator (EC50 shift, span). In kind it is cell-based. The note with it: MUSCENONE® dose response in the presence of 250 μM compound. The procedure: Next, two parallel dose-response experiments to confirm the true enhancement properties of the potential candidates were performed. First, a dose-response of each individual candidate was performed to determine if it was an agonist by itself.
The resulting enhancement was quantified by means of EC50-fold shift (potency increase) and the efficacy span ratio (efficacy increase).
The EC50-fold shift was obtained by dividing the EC50 of MUSCENONE® +compound by the reference EC50 MUSCENONE® alone. The span ratio was obtained by dividing the span of MUSCENONE®+compound by the reference span of MUSCENONE® alone.

Where two headings read alike, the source gives them in different places.

On to `CC1=CCCC2(CCCCC2)C1/C=C/C=O` (racemic) [(+−)-(2E)-3-(2-methylspiro [5.5]undec-2-en-1-yl) acrylaldehyde], for which the “Inhibition of the activity of the OR5AN1 olfactory receptor” value (“Inhibition” for short) in assay [1] is “inhibit the activity”.
Consider `CC(C)=CCCC(C)C/C=C/C=O` (racemic) [Compound 5, (+−)-(2E)-5,9-dimethyl-2,8-decadienal], for which the “Hit Type” value in assay [2] is listed as “Agonist”.
In the case of `CC12C3CC(CC31)[C@]2(C)C/C=C/C=O` (single isomer, unassigned; (+)), in assay [1], the “Inhibition” value is reported as “inhibit the activity”.
`CC(C)c1cccc(C(C)CC=O)c1` (stereo not drawn) [3-(3-propan-2-ylphenyl)butanal]: in assay [1], the “Inhibition” value is listed as “inhibit the activity”.
On the same count and under the same terms, the result for `O=CCCc1ccccc1` [3-phenylpropanal] reads “inhibit the activity”.
For the molecule `CC/C=C\CC/C=C/CO` [(E)-2-(Z)-6-nonadien-1-ol], in assay [1], the “Inhibition” value is “inhibit the activity”.
`CCCCCCCCC/C=C/C(=O)O` [(E)-2-dodecenoic acid]: the “Inhibition” value in assay [1] was “inhibit the activity”.
Turning to `CCC/C=C/C=O` [(E)-2-hexenal], the “Inhibition” value in assay [1] is “inhibit the activity”.
Turning to `CCCCCCCCCC/C=C/C(=O)O` [(E)-2-tridecenoic acid], the “Inhibition” value in assay [1] is recorded as “inhibit the activity”.
Consider `CCCCCCCCCC/C=C/CO` [(E)-2-tridecenol], for which the “Inhibition” value in assay [1] is “inhibit the activity”.
Same read-out and setting: the result for `CCCCCCCC/C=C/C(=O)O` [(E)-2-undecenoic acid] reads “inhibit the activity”; that for `COc1ccccc1/C=C/C=O` [(E)-3-(2-methoxyphenyl)prop-2-enal], “inhibit the activity”; that for `CCCCC/C=C/CCC=O` [(E)-dec-4-enal], “inhibit the activity”.
On to `CC/C=C\CCCCCO` [(Z)-6-nonen-1-ol], for which the “Inhibition” value in assay [1] is “inhibit the activity”.
For the molecule `CCCCCCCC=CC=O` [Compound 2-decenal, 2-decenal], the Allosteric modulation properties entry in assay [3] is given as “allosteric modulation properties similar to TDA”.
Regarding `CCCCCC/C=C/C=O` [Compound 6], the “Hit Type” value in assay [2] is “Enhancement”.
As for `CCCCCCCCCCC/C=C/C=O` [Compound 7, (E)-2-tetradecenal], in assay [2], the “Hit Type” value is reported as “Agonist”.
Still for that read-out and setting: then `CCCCCCC/C=C/C=O` [Compound 11], with “Enhancement”.
In the case of `CCC/C=C/C=O` [Compound 12], in assay [2], the “Hit Type” value was “Enhancement”.
The same measure, in the same setting: then `COC(=O)c1ccccc1OC` [Compound 16], with “Enhancement”.
On the same count and under the same terms, then `CC(=O)c1ccccc1N` [Compound 20], with “Enhancement”.
Consider `CC1CC=CCCCCCCCCCC(=O)C1` (stereo not drawn) [MUSCENONE®], for which the “Activity (span)” value in the assay with OR5AN1 allele 3 (allele 3, absence of enhancer) was 2311 relative fluorescent HTRF units; in the assay on OR5AN1 allele 3 (allele 3, in the presence of tridecylenic aldehyde), 4663 relative fluorescent HTRF units; with OR5AN1 allele 4 (allele 4, absence of enhancer), 2328 relative fluorescent HTRF units; in the assay on OR5AN1 allele 4 (allele 4, in the presence of tridecylenic aldehyde) it was 5026 relative fluorescent HTRF units. The EC50 worked out at 9 µM in the assay with OR5AN1 allele 3 (allele 3, absence of enhancer); 1.5 µM in the assay with OR5AN1 allele 3 (allele 3, in the presence of 250 μM tridecylenic aldehyde); 10.1 µM with OR5AN1 allele 4 (allele 4, absence of enhancer); 1.6 µM with OR5AN1 allele 4 (allele 4, in the presence of 250 μM tridecylenic aldehyde). In assay [4] (FIG. 1a), the “Activation of the OR5AN1 olfactory receptor” value (shortened to “Activation”) is “specifically activated”. Also, in assay [4] (efficacy, maximum span), the “Span (HTRF ratio)” value came to 3629 HTRF ratio. Further, the “ODT (odor detection threshold)” value in assay [5] (in the presence of nonanal at 0.1%, 27 panelists) is on record as 0.93%; in assay [5] (in the presence of tridecylenic aldehyde at 0.1%, 28 panelists), 0.09%.
With `C[C@@H]1CCCCCCCCCCCCC(=O)C1` [Muscone], the “Activation” value in assay [4] (FIG. 1a) is listed as “specifically activated”. Also, the “Span (HTRF ratio)” value in assay [4] (efficacy, maximum span) is given as 2979 HTRF ratio.
In the case of `CC(=O)c1c(C)c([N+](=O)[O-])c(C(C)(C)C)c([N+](=O)[O-])c1C` [Musk ketone], in assay [4] (FIG. 1a), the “Activation” value is given as “specifically activated”. Also, the “Span (HTRF ratio)” value in assay [4] (efficacy, maximum span) came to 4312 HTRF ratio.
In the case of `Cc1c([N+](=O)[O-])c(C)c([N+](=O)[O-])c(C(C)(C)C)c1[N+](=O)[O-]` [Musk xylol], in assay [4], the “Activation” value is recorded as “specifically activated” and the “Span (HTRF ratio)” value is on record as 4217 HTRF ratio.
As for `CC/C(=C\CC1CC=C(C)C1(C)C)CO` (stereo not drawn) [bacdanol], in assay [1], the “Inhibition” value was “inhibit the activity”.
Still for that read-out and setting: then `SCc1ccco1` [furfuryl mercaptan], with “inhibit the activity”.
As to `CCCCCCCCC=O` [nonanal, reference compound], in assay [6], the “OR5AN1 Musk response enhancement” value is on record as “non-enhancing”.
With `CCCCCC/C=C/C=O` [nonylenic aldehyde], the Allosteric modulation properties entry in assay [3] is listed as “allosteric modulation properties similar to TDA”.
For the molecule `CCCCCCCC=O` [octanal], the “Inhibition” value in assay [1] is recorded as “inhibit the activity”.
With `CCCCCOC(=O)CCCC` [pentyl valerate], the “Inhibition” value in assay [1] was “inhibit the activity”.
On the same count and under the same terms, the result for `CC1C2CC(CC2C2CCCC(O)C2)C1(C)C` (stereo not drawn) [sandenol] reads “inhibit the activity”; that for `C/C(C=O)=C\CCc1ccc(C(C)(C)C)cc1` [trans-5-(4-tert-butylphenyl)-2-methylpent-2-enal], “inhibit the activity”.
Consider `C=CCCCCCCCCC(=O)O` [undecenoic acid], for which the “OR5AN1 Musk response enhancement” value in assay [6] is “absence of enhancement”.
For “(2E)-7,8-dimethyl-2,7-nonadienal [Compound 1]”, in assay [2], the “Hit Type” value is listed as “Agonist”.
On to “(2E)-7-methyl-2,6-octadienal [Compound 3]”, for which the “Hit Type” value in assay [2] is reported as “agonists”.
For “Trans-2,6,7-dimethyl-2,6-octadienal [Compound 9]”, in assay [2], the “Hit Type” value is listed as “agonists”.
